Results published in US9113629B2, “4-amino-6-(4-substituted-phenyl)-picolinates and 6-amino-2-(4-substituted-phenyl)-pyrimidine-4-carboxylates and their use as herbicides” (DOW AGROSCIENCES LLC, priority 2013, dated 2015).
Like-named read-outs stand apart in the source and are kept apart here.

What was measured:
[1] = test system: Key Broadleaf Weed and Crop Species; assay: Post-emergent Test II herbicidal activity (Table 5); assay type: in vivo; conditions: post-emergence, 336 h, post-emergent, 14 days after application; for pest or weed control at 70 g/ha: 70 g ai/ha; for pest or weed control at 140 g/ha: 140 g ai/ha
Outline: (§1)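 Greenhouse post-emergent assay: seedlings (first/second true leaf) in Metro-Mix 360 were sprayed at 187 L/ha at a top rate plus twofold dilutions down to 1/16×; solvent-blank controls were included. Percent visual injury was read at 14 d.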

[2] = test system: Key Grass and Sedge Weeds as well as Grass Crops; assay: Post-emergent Test II herbicidal activity (Table 6); assay type: in vivo; conditions: post-emergence, 336 h; for pest or weed control at 70 g/ha: application rate 70 g ai/ha; for pest or weed control at 140 g/ha: application rate 140 g ai/ha
Outline: as §1

[3] = ABUTH: velvetleaf (Abutilon theophrasti), read-out: Visual Growth Reduction (%) 14 Days After Application ABUTH
[4] = AMARE: redroot pigweed (Amaranthus retroflexus), read-out: Visual Growth Reduction (%) 14 Days After Application AMARE
[5] = BRSNN: oilseed-rape, canola (Brassica napus), read-out: Visual Growth Reduction (%) 14 Days After Application BRSNN
[6] = CHEAL: lambsquarters (Chenopodium album), read-out: Visual Growth Reduction (%) 14 Days After Application CHEAL
[7] = EPHHL: wild poinsettia (Euphorbia heterophylla), read-out: Visual Growth Reduction (%) 14 Days After Application EPHHL
[8] = HELAN: sunflower (Helianthus annuus), read-out: Visual Growth Reduction (%) 14 Days After Application HELAN
[9] = VIOTR: wild pansy (Viola tricolor), read-out: Visual Growth Reduction (%) 14 Days After Application VIOTR
[10] = Triticum aestivum, TRZSS (wheat), read-out: Visual Growth Reduction (%) 14 Days After Application, TRZSS
[11] = CYPES: yellow nutsedge (Cyperus esculentus), read-out: Visual Growth Reduction (%) 14 Days After Application, CYPES
[12] = DIGSA: crabgrass (Digitaria sanguinalis), read-out: Visual Growth Reduction (%) 14 Days After Application, DIGSA
[13] = ECHCG: barnyardgrass (Echinochloa crus-galli), read-out: Visual Growth Reduction (%) 14 Days After Application, ECHCG
[14] = ORYSA: rice (Oryza sativa), read-out: Visual Growth Reduction (%) 14 Days After Application, ORYSA
[15] = SETFA: giant foxtail (Setaria faberi), read-out: Visual Growth Reduction (%) 14 Days After Application, SETFA
[16] = SORVU: grain sorghum (Sorghum vulgare), read-out: Visual Growth Reduction (%) 14 Days After Application, SORVU
[17] = ZEAMX: maize, corn (Zea mays), read-out: Visual Growth Reduction (%) 14 Days After Application, ZEAMX

`COC(=O)c1nc(-c2ccc(Br)c(F)c2)nc(N)c1OC` [Compound 171, Methyl 6-amino-2-(4-bromo-3-fluorophenyl)-5-methoxypyrimidine-4-carboxylate] was tested, and the pest or weed control at 70 g/ha [1, 3] was 75 to 84%, the pest or weed control at 140 g/ha [1, 3] was 85 to 94% and the pest or weed control at 70 g/ha [1, 4] was 85 to 94%. It also gave a pest or weed control at 140 g/ha [1, 4] of 95 to 100%, a pest or weed control at 70 g/ha [1, 5] of 85 to 94% and a pest or weed control at 140 g/ha [1, 5] of 85 to 94%. The pest or weed control at 70 g/ha [1, 6] was 85 to 94%, the pest or weed control at 140 g/ha [1, 6] was 85 to 94% and the pest or weed control at 70 g/ha [1, 7] was 95 to 100%. For the same compound, the pest or weed control at 140 g/ha [1, 7] was 95 to 100%, the pest or weed control at 70 g/ha [1, 8] was 85 to 94% and the pest or weed control at 140 g/ha [1, 8] was 85 to 94%. The pest or weed control at 70 g/ha [1, 9] was 95 to 100%, the pest or weed control at 140 g/ha [1, 9] was 95 to 100% and the pest or weed control at 70 g/ha [2, 10] was 30 to 44%. For the same compound, the pest or weed control at 140 g/ha [2, 10] was 30 to 44%, the pest or weed control at 70 g/ha [2, 11] was 45 to 59% and the pest or weed control at 140 g/ha [2, 11] was 45 to 59%. For the same compound, the pest or weed control at 70 g/ha [2, 12] was 0 to 29%, the pest or weed control at 140 g/ha [2, 12] was 60 to 74% and the pest or weed control at 70 g/ha [2, 13] was 30 to 44%. The pest or weed control at 140 g/ha [2, 13] was 60 to 74%, the pest or weed control at 70 g/ha [2, 14] was 0 to 29% and the pest or weed control at 140 g/ha [2, 14] was 0 to 29%. For the same compound, the pest or weed control at 70 g/ha [2, 15] was 0 to 29%, the pest or weed control at 140 g/ha [2, 15] was 0 to 29% and the pest or weed control at 70 g/ha [2, 16] was 0 to 29%. The pest or weed control at 140 g/ha [2, 16] was 45 to 59%, the pest or weed control at 70 g/ha [2, 17] was 60 to 74% and the pest or weed control at 140 g/ha [2, 17] was 75 to 84%.
